From ChEMBL document CHEMBL2331296, “Synthesis of tetrahydroxybiphenyls and tetrahydroxyterphenyls and their evaluation as amyloid-β aggregation inhibitors” (Bioorg Med Chem Lett, 2013)
The source made the active and inactive calls. No cut-off for these calls is given here.

Key:
[1] = target: T1, Amyloid-beta precursor protein (Homo sapiens, UniProt P05067); experiment: Inhibition of amyloid-beta40 (unknown origin) aggregation by congo red spectral-shift assay
[2] = target: T1, Amyloid-beta precursor protein; experiment: Inhibition of amyloid-beta40 (unknown origin) aggregation at 250 uM by congo red spectral-shift assay
[3] = target: T1, Amyloid-beta precursor protein; experiment: Displacement of congo red from amyloid-beta40 (unknown origin) assessed as reduction of congo red-amyloid beta40 complex level; set-up: scale not given: the % may be the effect or the level left

T1 sequence (P05067 whole entry): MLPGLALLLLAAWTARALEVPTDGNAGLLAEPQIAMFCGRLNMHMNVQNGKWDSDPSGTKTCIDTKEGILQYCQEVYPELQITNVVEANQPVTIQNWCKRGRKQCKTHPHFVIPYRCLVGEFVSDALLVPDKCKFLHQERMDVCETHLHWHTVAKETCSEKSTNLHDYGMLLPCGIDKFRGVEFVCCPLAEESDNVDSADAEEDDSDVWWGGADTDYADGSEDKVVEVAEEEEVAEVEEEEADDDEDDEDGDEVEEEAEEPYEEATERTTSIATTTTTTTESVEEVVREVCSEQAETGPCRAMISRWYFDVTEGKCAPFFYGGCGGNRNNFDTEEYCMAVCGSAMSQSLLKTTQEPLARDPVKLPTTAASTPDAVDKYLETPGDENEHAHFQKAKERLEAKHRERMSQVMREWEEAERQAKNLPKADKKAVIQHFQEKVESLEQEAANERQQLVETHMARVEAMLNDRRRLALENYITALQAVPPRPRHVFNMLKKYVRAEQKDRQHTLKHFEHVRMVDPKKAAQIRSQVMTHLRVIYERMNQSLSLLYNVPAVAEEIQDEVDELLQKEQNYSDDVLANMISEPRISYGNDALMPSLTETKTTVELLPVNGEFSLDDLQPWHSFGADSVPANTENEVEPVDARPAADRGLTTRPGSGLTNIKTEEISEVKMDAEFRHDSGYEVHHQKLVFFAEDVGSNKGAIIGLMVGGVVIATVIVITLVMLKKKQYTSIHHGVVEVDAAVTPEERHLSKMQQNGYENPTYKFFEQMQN

| IC50 [1] | Activity [2] | Activity [3] | SMILES |
| --- | --- | --- | --- |
| 67.5 µM | inactive | 2.6% | Oc1ccc(-c2ccccc2-c2ccc(O)c(O)c2)cc1O |
| 92.5 µM | inactive | 2.6% | Oc1ccc(-c2cccc(-c3ccc(O)c(O)c3)c2)cc1O |
| 25 µM |  | 2.6% | Oc1ccc(-c2ccc(O)c(O)c2)cc1O |
|  | Active |  | Oc1ccc(-c2ccc(-c3ccc(O)c(O)c3)cc2)cc1O |
